Data taken from ChEMBL document CHEMBL5291721, “A preclinical secondary pharmacology resource illuminates target-adverse drug reaction associations of marketed drugs” (Nat Commun, 2023).

Columns and labels:
Bile salt export pump = Bile salt export pump (Homo sapiens, UniProt O95342); format: functional
Adenosine receptor A1 = target: T1, Adenosine receptor A1 (Homo sapiens, UniProt P30542)
T1 sequence (P30542 whole entry): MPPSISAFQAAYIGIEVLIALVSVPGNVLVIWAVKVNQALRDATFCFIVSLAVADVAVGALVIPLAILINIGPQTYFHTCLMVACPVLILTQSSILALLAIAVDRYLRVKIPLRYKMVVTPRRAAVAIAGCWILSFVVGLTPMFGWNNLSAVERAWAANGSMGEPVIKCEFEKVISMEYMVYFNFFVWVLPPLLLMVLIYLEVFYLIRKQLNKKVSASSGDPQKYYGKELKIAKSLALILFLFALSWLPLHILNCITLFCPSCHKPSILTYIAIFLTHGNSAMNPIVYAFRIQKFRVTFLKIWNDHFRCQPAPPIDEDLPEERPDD

Adenosine receptor A2a = Adenosine receptor A2a (Homo sapiens, UniProt P29274)
Adenosine receptor A3 = target: T2, Adenosine receptor A3 (Homo sapiens, UniProt P0DMS8)
T2 sequence (P0DMS8 whole entry): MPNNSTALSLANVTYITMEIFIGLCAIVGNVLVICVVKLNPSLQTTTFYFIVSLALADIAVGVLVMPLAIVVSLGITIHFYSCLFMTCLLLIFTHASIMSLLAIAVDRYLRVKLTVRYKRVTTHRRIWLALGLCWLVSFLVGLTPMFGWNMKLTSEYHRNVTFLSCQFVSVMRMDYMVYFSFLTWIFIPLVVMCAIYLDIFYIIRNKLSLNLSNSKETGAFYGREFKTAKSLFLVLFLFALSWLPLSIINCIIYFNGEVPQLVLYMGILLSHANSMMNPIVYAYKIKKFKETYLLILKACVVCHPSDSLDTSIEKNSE

[1] = target: T3, Alpha-2A adrenergic receptor (Homo sapiens, UniProt P08913); format: functional, cell-based
T3 sequence (P08913 whole entry): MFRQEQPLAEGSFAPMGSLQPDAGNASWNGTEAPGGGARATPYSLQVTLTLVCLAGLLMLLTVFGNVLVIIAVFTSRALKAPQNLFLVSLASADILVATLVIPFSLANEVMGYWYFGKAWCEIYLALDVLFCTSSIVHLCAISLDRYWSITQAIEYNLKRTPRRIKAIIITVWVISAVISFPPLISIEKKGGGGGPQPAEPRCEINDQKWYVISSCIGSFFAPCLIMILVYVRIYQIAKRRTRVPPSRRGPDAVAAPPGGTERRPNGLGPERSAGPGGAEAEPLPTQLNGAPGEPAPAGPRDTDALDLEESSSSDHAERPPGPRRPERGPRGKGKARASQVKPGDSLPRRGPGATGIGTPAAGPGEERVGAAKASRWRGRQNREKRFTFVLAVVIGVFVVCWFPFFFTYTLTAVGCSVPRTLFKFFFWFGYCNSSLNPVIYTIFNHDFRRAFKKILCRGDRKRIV

[2] = target: T4, Type-1 angiotensin II receptor (Homo sapiens, UniProt P30556)
T4 sequence (P30556 whole entry): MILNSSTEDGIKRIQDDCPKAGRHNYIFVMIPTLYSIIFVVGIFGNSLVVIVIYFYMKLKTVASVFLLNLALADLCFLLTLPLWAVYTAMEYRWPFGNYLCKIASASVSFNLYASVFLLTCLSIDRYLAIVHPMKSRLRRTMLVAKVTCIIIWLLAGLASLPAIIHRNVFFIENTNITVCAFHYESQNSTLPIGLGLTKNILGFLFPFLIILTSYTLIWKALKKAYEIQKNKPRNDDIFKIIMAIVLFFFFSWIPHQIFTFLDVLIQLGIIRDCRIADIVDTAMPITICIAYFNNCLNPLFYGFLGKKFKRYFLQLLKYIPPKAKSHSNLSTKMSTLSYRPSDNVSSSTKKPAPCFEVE

D(1A) dopamine receptor = D(1A) dopamine receptor (Homo sapiens, UniProt P21728); format: functional, cell-based
[3] = target: Growth hormone secretagogue receptor type 1 (Homo sapiens, UniProt Q92847)
[4] = target: T5, 5-hydroxytryptamine receptor 1A (Homo sapiens, UniProt P08908); format: functional, cell-based
T5 sequence (P08908 whole entry): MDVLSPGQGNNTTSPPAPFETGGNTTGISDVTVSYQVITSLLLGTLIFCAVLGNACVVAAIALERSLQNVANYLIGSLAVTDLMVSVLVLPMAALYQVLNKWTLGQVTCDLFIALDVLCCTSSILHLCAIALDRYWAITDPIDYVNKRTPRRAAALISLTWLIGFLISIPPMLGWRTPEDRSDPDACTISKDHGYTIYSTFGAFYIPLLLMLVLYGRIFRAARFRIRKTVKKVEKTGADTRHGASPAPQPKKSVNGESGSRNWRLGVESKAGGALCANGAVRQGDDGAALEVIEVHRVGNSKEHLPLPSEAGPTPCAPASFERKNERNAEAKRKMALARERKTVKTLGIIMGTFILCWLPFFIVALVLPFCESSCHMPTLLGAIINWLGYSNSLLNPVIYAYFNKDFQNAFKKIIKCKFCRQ

[5] = target: 5-hydroxytryptamine receptor 2B (Homo sapiens, UniProt P41595); format: functional, cell-based
[6] = target: T6, 5-hydroxytryptamine receptor 3A (Homo sapiens, UniProt P46098); format: functional
T6 sequence (P46098 whole entry): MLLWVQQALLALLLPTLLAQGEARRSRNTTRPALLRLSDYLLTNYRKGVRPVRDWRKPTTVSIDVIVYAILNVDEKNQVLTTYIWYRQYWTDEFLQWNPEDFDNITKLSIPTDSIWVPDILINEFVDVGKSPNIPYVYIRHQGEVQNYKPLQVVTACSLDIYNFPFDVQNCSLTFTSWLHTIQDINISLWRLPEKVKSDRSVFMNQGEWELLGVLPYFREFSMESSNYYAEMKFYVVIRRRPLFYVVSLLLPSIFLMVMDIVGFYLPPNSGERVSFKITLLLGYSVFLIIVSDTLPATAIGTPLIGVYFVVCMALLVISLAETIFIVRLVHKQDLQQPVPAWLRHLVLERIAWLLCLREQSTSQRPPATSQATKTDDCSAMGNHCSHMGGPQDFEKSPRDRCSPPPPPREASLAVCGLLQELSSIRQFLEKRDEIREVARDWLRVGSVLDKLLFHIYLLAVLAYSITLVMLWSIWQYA

[7] = target: Voltage-gated inwardly rectifying potassium channel KCNH2 (Homo sapiens, UniProt Q12809); format: functional; settings: read-out: AC50
Melanocortin receptor 3 = Melanocortin receptor 3 (Homo sapiens, UniProt P41968)
[8] = target: 3',5'-cyclic-AMP phosphodiesterase 4D (Homo sapiens, UniProt Q08499); format: functional
Also: assay procedure not described here.

5-hydroxytryptamine receptor 2B, sequence (P41595 whole entry): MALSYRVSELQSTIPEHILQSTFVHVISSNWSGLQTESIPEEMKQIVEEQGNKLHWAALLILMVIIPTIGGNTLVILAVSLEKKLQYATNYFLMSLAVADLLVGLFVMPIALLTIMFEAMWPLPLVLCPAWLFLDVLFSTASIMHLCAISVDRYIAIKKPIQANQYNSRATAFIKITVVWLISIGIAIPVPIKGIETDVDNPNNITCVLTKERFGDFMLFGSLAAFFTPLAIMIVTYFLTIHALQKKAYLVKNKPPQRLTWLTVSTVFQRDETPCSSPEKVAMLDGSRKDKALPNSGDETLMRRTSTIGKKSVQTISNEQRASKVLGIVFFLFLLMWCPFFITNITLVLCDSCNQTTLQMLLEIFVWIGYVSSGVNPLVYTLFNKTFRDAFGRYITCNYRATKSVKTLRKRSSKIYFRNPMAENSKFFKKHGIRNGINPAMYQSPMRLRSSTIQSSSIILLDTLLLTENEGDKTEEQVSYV
3',5'-cyclic-AMP phosphodiesterase 4D, sequence (Q08499 whole entry): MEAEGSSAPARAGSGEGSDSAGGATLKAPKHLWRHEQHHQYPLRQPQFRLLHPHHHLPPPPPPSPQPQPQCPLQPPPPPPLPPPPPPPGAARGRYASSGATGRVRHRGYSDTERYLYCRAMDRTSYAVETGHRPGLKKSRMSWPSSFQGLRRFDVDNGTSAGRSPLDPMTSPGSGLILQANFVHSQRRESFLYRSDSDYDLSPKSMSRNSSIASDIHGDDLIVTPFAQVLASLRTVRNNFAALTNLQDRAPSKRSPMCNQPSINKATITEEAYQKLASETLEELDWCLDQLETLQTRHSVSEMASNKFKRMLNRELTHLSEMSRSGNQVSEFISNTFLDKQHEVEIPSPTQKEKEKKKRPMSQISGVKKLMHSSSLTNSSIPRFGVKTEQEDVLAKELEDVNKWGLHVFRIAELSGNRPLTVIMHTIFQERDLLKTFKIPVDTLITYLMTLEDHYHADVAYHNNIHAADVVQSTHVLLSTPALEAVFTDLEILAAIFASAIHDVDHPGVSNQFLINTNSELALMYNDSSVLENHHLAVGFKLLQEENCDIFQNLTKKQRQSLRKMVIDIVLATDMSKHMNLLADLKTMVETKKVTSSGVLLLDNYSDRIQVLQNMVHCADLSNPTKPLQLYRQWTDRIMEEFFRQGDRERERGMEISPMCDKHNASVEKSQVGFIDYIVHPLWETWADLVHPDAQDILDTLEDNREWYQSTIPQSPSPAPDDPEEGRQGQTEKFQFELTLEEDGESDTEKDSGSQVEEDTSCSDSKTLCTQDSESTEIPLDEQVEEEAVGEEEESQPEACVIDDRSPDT
Melanocortin receptor 3, sequence (P41968 whole entry): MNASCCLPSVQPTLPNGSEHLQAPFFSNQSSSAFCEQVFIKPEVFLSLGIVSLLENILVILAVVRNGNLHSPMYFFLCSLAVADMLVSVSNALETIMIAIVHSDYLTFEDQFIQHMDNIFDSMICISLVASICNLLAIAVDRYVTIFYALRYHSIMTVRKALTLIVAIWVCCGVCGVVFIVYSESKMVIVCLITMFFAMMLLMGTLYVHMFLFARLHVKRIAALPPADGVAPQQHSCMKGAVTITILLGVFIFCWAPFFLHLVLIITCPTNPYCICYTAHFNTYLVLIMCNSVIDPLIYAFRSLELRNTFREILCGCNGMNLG
Growth hormone secretagogue receptor type 1, sequence (Q92847 whole entry): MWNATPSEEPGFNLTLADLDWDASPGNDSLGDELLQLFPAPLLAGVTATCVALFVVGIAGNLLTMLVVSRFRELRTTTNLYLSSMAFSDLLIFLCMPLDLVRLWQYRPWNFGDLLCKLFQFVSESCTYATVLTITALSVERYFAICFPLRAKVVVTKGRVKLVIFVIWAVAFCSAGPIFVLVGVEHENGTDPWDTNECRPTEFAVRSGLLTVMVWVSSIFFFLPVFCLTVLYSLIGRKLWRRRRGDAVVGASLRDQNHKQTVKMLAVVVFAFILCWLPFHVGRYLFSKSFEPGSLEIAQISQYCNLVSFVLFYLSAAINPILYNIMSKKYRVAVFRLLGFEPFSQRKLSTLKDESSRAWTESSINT
D(1A) dopamine receptor, sequence (P21728 whole entry): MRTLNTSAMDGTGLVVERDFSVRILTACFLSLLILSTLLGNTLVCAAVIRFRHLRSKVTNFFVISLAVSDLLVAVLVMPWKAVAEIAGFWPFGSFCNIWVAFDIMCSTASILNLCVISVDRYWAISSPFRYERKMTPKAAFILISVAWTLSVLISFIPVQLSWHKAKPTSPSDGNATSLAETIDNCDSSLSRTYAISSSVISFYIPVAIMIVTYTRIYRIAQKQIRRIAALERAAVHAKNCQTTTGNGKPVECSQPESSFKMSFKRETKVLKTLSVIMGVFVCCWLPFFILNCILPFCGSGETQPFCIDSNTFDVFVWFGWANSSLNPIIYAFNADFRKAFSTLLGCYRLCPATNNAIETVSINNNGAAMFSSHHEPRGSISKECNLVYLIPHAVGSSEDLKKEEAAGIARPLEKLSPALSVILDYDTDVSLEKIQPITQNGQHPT
Bile salt export pump, sequence (O95342 whole entry): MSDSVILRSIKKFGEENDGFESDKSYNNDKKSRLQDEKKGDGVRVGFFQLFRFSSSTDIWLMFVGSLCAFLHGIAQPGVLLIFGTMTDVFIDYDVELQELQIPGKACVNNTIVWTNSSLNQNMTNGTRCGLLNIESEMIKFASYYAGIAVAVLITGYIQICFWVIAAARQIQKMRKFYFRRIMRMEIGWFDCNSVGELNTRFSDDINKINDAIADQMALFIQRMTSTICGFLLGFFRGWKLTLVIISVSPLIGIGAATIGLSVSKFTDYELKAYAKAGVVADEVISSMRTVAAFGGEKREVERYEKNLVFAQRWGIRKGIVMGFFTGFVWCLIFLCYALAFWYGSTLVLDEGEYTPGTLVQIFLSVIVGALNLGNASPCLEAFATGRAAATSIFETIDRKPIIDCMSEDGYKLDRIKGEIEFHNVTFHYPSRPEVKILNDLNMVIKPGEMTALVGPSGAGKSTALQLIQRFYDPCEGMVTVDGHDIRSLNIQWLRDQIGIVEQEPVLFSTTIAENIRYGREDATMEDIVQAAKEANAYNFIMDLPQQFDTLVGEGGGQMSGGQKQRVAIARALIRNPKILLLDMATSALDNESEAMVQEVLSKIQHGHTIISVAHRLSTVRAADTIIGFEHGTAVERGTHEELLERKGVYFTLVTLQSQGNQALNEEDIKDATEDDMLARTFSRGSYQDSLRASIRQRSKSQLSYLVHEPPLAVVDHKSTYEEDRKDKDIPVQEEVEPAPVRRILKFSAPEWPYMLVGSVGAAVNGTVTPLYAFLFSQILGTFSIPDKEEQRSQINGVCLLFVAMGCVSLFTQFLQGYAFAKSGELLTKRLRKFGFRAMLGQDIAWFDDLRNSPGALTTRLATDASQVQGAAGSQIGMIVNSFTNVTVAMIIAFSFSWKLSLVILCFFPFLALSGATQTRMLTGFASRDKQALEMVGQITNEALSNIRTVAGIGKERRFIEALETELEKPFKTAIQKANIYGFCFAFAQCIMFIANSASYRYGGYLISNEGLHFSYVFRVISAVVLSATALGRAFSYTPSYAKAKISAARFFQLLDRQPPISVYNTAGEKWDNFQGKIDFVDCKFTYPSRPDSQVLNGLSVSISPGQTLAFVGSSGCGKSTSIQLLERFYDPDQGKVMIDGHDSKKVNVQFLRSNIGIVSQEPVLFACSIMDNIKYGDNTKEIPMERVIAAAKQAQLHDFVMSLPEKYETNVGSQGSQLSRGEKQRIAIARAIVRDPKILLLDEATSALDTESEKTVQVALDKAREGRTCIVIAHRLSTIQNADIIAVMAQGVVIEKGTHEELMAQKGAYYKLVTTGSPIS
Voltage-gated inwardly rectifying potassium channel KCNH2, sequence (Q12809 whole entry): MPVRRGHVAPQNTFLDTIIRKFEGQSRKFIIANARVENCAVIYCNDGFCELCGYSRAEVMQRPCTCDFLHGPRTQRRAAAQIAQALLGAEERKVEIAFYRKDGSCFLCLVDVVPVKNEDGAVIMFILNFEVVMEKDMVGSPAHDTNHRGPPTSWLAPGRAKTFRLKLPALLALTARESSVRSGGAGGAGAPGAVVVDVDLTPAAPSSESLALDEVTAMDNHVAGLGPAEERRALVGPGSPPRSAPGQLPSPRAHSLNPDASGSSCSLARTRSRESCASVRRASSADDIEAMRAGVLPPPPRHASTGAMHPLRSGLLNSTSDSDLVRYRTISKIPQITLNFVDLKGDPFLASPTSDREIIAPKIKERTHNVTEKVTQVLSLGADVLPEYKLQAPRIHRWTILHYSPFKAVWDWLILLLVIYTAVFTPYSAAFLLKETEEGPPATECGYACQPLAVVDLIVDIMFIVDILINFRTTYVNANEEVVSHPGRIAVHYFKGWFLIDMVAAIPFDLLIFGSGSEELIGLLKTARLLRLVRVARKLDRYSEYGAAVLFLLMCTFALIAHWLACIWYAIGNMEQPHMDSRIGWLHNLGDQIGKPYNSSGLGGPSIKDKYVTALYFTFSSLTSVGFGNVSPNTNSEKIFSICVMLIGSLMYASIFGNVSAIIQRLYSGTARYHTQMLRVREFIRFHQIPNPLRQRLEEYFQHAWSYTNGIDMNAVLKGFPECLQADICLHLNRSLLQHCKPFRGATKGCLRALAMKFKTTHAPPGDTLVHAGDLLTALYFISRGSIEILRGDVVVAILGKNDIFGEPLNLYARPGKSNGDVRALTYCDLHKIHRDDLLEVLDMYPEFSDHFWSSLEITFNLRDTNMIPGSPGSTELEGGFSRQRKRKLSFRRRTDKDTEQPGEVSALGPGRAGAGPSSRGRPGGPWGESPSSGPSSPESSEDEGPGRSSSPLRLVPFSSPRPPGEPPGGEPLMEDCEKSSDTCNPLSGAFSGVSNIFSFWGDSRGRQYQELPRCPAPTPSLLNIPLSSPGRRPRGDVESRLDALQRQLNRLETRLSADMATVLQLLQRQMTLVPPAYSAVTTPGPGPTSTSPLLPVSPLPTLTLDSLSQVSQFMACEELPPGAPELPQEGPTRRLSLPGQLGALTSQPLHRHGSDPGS

O=C(O)[C@H]1/C(=C/CO)O[C@@H]2CC(=O)N21 [CLAVULANIC ACID]
AC50 (Bile salt export pump): > 300 µM
AC50 (Adenosine receptor A1): > 30 µM
AC50 (Adenosine receptor A2a): > 30 µM
AC50 (Adenosine receptor A3): > 30 µM
AC50 [1]: > 30 µM
AC50 [2]: > 30 µM
AC50 (D(1A) dopamine receptor): > 30 µM
AC50 [3]: > 30 µM
AC50 [4]: > 30 µM
AC50 [5]: > 30 µM
AC50 [6]: > 30 µM
AC50 [7]: > 30 µM
AC50 (Melanocortin receptor 3): > 30 µM
AC50 [8]: > 30 µM

O=C(c1ccccc1)c1ccc2n1CCC2C(=O)O (centres undefined) [KETOROLAC]
AC50 (Bile salt export pump): > 300 µM
AC50 (Adenosine receptor A1): > 10 µM
AC50 (Adenosine receptor A2a): > 10 µM
AC50 (Adenosine receptor A3): > 10 µM
AC50 [1]: > 30 µM
AC50 [2]: > 10 µM
AC50 (D(1A) dopamine receptor): > 30 µM
AC50 [3]: > 10 µM
AC50 [4]: > 30 µM
AC50 [5]: > 30 µM
AC50 [6]: > 30 µM
AC50 [7]: > 30 µM
AC50 (Melanocortin receptor 3): > 10 µM
AC50 [8]: > 30 µM

CCOC(=O)Nc1ccc(NCc2ccc(F)cc2)nc1N [FLUPIRTINE]
AC50 (Bile salt export pump): 85 µM
AC50 (Adenosine receptor A1): > 30 µM
AC50 (Adenosine receptor A2a): > 30 µM
AC50 (Adenosine receptor A3): 21 µM
AC50 [1]: 23 µM
AC50 [2]: > 30 µM
AC50 (D(1A) dopamine receptor): > 30 µM
AC50 [3]: > 30 µM
AC50 [4]: > 30 µM
AC50 [5]: > 30 µM
AC50 [6]: > 30 µM
AC50 [7]: 27 µM
AC50 (Melanocortin receptor 3): > 30 µM
AC50 [8]: > 30 µM

NCC1(CC(=O)O)CCCCC1 [GABAPENTIN]
AC50 (Bile salt export pump): > 300 µM
AC50 (Adenosine receptor A1): > 30 µM
AC50 (Adenosine receptor A2a): > 30 µM
AC50 (Adenosine receptor A3): > 30 µM
AC50 [1]: > 30 µM
AC50 [2]: > 30 µM
AC50 (D(1A) dopamine receptor): > 30 µM
AC50 [3]: > 30 µM
AC50 [4]: > 30 µM
AC50 [5]: > 30 µM
AC50 [6]: > 30 µM
AC50 [7]: > 30 µM
AC50 (Melanocortin receptor 3): > 30 µM
AC50 [8]: > 30 µM

CCOc1ccccc1OCCN[C@H](C)Cc1ccc(OC)c(S(N)(=O)=O)c1 [TAMSULOSIN]
AC50 (Bile salt export pump): > 300 µM
AC50 (Adenosine receptor A1): > 30 µM
AC50 (Adenosine receptor A2a): > 30 µM
AC50 (Adenosine receptor A3): > 30 µM
AC50 [1]: 4.77 µM
AC50 [2]: > 30 µM
AC50 (D(1A) dopamine receptor): > 10 µM
AC50 [3]: > 30 µM
AC50 [4]: > 10 µM
AC50 [5]: > 10 µM
AC50 [6]: > 30 µM
AC50 [7]: 6.95 µM
AC50 (Melanocortin receptor 3): > 30 µM
AC50 [8]: > 30 µM

CCN(CCO)CCCC(C)Nc1ccnc2cc(Cl)ccc12 (centres undefined) [HYDROXYCHLOROQUINE]
AC50 (Bile salt export pump): > 300 µM
AC50 (Adenosine receptor A1): > 10 µM
AC50 (Adenosine receptor A2a): > 10 µM
AC50 (Adenosine receptor A3): > 10 µM
AC50 [1]: > 10 µM
AC50 [2]: > 10 µM
AC50 (D(1A) dopamine receptor): > 10 µM
AC50 [3]: > 10 µM
AC50 [4]: > 10 µM
AC50 [5]: > 10 µM
AC50 [6]: > 30 µM
AC50 [7]: 7.4 µM
AC50 (Melanocortin receptor 3): > 10 µM
AC50 [8]: > 30 µM
